The assay concerns the target human GPR40 receptor (Homo sapiens, UniProt O14842). Description: Assay II: IP1 accumulation (IPOne HTRF) in 1321N1 cells stably expressing human GPR40. It counts as cell-based. To be noted: 1321N1 cells expressing human GPR40, stimulation 1 h at 37° C., 5% CO2, LiCl 50 mM. Here is the method: IP1 accumulation measurements using the IPOne assay system—1321N1 cells stably expressing human GPR40 receptor (Euroscreen, Belgium) are seeded 24 h before the assay in white 384-well plates in culture medium containing 10% FCS, 1% Na-Pyruvate and 400 μg/mL G418. IP1 is assayed according to the manufacturers description (Cisbio Bioassays, France). In brief, the assay is started by substitution of the culture medium by stimulation buffer (Hepes 10 mM, CaCl2 1 mM, MgCl2 0.5 mM, KCl 4.2 mM, NaCl 146 mM, glucose 5.5 mM and LiCl 50 mM, pH 7.4). Cells are stimulated for 1 h at 37° C., 5% CO2 by addition of the compounds that are diluted in stimulation buffer containing LiCl. Assays are stopped by adding HTRF-conjugates (IP1-d2 and Anti-IP1 cryptate Tb) and lysis buffer, provided by the manufacturer. After an incubation time of 1 h at room temperature plates are measured using an EnVision™, Perkin Elmer. The obtained fluorescence ratios at 665/615 nM are then used to calculate the pEC50 values using Assay Explorer 3.3 Software (Accelrys, Inc.) by interpolation using an IP1 reference curve and subsequent sigmoidal curve fitting allowing for a variable hill slope.

human GPR40 receptor, sequence (O14842 whole entry): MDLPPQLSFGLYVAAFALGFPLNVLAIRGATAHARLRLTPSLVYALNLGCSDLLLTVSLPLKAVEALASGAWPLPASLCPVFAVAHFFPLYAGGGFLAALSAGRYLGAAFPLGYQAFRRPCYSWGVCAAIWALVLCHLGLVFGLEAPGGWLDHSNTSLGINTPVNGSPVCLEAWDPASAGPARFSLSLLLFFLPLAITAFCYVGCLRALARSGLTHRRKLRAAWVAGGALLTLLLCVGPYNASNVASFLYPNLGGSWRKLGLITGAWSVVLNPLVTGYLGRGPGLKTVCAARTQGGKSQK

What is called EC50 is the concentration at which the effect is half-maximal. For the compound `CCc1ccc(-c2cc(C)c(-c3ccc(F)c4c3CC[C@H]4Oc3ccc4c(c3)OC[C@H]4CC(=O)O)c(C)c2)nn1` [Example 125, {(S)-6-[(R)-4-(2,6-Dimethyl-4-(6-ethyl-pyridazin-3-yl)-phenyl)-7-fluoro-indan-1-yloxy]-2,3-dihydro-benzofuran-3-yl}-acetic acid], the EC50 was 4 nM.

Turning to `Cc1cc(-c2cccnc2)cc(C)c1-c1ccc(F)c2c1CC[C@H]2Oc1ccc2c(c1)OC[C@H]2CC(=O)O` [Example 112, {(S)-6-[(R)-4-(2,6-Dimethyl-4-pyridin-3-yl-phenyl)-7-fluoro-indan-1-yloxy]-2,3-dihydro-benzofuran-3-yl}-acetic acid], the midpoint of the response, the EC50, lay at 5 nM.

`CC(=O)NCCc1cc(C)c(-c2ccc(F)c3c2CC[C@H]3Oc2ccc3c(c2)OC[C@H]3CC(=O)O)c(C)c1` [Example 72, 2-((S)-6-((R)-4-(4-(2-Acetamidoethyl)-2,6-dimethylphenyl)-7-fluoro-2,3-dihydro-1H-inden-1-yloxy)-2,3-dihydrobenzofuran-3-yl)acetic acid] came in with an EC50 of 23 nM.

As for `Cc1cc(CCCS(C)(=O)=O)cc(C)c1-c1ccc(F)c2c1CC[C@H]2Oc1ccc2c(c1)OC[C@H]2CC(=O)O` [Example 70, 2-((S)-6-((R)-4-(2,6-Dimethyl-4-(3-(methylsulfonyl)propyl)phenyl)-7-fluoro-2,3-dihydro-1H-inden-1-yloxy)-2,3-dihydrobenzofuran-3-yl)acetic acid], the EC50 is 60 nM.

Consider `Cc1cc(CCC(C)(C)O)cc(C)c1-c1ccc(F)c2c1CC[C@H]2Oc1ccc2c(c1)OC[C@H]2CC(=O)O` [Example 67, 2-((S)-6-((R)-7-Fluoro-4-(4-(3-hydroxy-3-methylbutyl)-2,6-dimethylphenyl)-2,3-dihydro-1H-inden-1-yloxy)-2,3-dihydrobenzofuran-3-yl)acetic acid], for which a half-maximal response (EC50) required 7 nM.

`Cc1cc(OCc2ccn(C)c(=O)c2)cc(C)c1-c1ccc(F)c2c1CC[C@H]2Oc1ccc2c(c1)OC[C@H]2CC(=O)O` [Example 146, 2-((S)-6-((R)-4-(2,6-dimethyl-4-((1-methyl-2-oxo-1,2-dihydropyridin-4-yl)methoxy)phenyl)-7-fluoro-2,3-dihydro-1H-inden-1-yloxy)-2,3-dihydrobenzofuran-3-yl)acetic acid] came in with an EC50 of 7 nM.

On to `Cc1cc(C)nc(-c2cc(C)c(-c3ccc(F)c4c3CC[C@H]4Oc3ccc4c(c3)OC[C@H]4CC(=O)O)c(C)c2)c1` [Example 141, {(S)-6-[(R)-4-(2,6-Dimethyl-4-(4,6-dimethyl-pyridin-2-yl)-phenyl)-7-fluoro-indan-1-yloxy]-2,3-dihydro-benzofuran-3-yl}-acetic acid], for which the EC50 came out at 3 nM.

`Cc1cc(OC2CCS(=O)(=O)NC2)cc(C)c1-c1ccc(F)c2c1CC[C@H]2Oc1ccc2c(c1)OC[C@H]2CC(=O)O` (stereo partly drawn) [Example 41, ((S)-6-{(R)-4-[4-(1,1-Dioxo-1-[1,2]thiazinan-4-yloxy)-2,6-dimethyl-phenyl]-7-fluoro-indan-1-yloxy}-2,3-dihydro-benzofuran-3-yl)-acetic acid]: a half-maximal response (EC50) required 18 nM.

Compound `Cc1cc(OCc2ncco2)cc(C)c1-c1ccc(F)c2c1CC[C@H]2Oc1ccc2c(c1)OC[C@H]2CC(=O)O` [Example 148, 2-((S)-6-((R)-4-(2,6-dimethyl-4-(oxazol-2-ylmethoxy)phenyl)-7-fluoro-2,3-dihydro-1H-inden-1-yloxy)-2,3-dihydrobenzofuran-3-yl)acetic acid] returned a concentration giving a half-maximal response (EC50) of 13 nM.

Compound `COc1ccc(-c2cc(C)c(-c3ccc(F)c4c3CC[C@H]4Oc3ccc4c(c3)OC[C@H]4CC(=O)O)c(C)c2)nc1` [Example 135, {(S)-6-[(R)-4-(2,6-Dimethyl-4-(5-methoxy-pyridin-2-yl)-phenyl)-7-fluoro-indan-1-yloxy]-2,3-dihydro-benzofuran-3-yl}-acetic acid] registered an EC50 of 7 nM.

For the compound `Cc1ccnc(-c2cc(C)c(-c3ccc(F)c4c3CC[C@H]4Oc3ccc4c(c3)OC[C@H]4CC(=O)O)c(C)c2)n1` [Example 119, {(S)-6-[(R)-4-(2,6-Dimethyl-4-(4-methyl-pyrimidin-2-yl)-phenyl)-7-fluoro-indan-1-yloxy]-2,3-dihydro-benzofuran-3-yl}-acetic acid], a half-maximal effect (EC50) was put at 1 nM.

The compound `COc1nccc(-c2cc(C)c(-c3ccc(F)c4c3CC[C@H]4Oc3ccc4c(c3)OC[C@H]4CC(=O)O)c(C)c2)n1` [Example 93] gave an EC50 of 4 nM.

`Cc1cc(O[C@@H]2CCCN(S(C)(=O)=O)C2)cc(C)c1-c1ccc(F)c2c1CC[C@H]2Oc1ccc2c(c1)OC[C@H]2CC(=O)O` [Example 49, ((S)-6-{(R)-7-Fluoro-4-[4-((R)-1-methanesulfonyl-piperidin-3-yloxy)-2,6-dimethyl-phenyl]-indan-1-yloxy}-2,3-dihydro-benzofuran-3-yl)-acetic acid]: a half-maximal response (EC50) required 10 nM.

`Cc1cc(-c2nnnn2C)cc(C)c1-c1ccc(F)c2c1CC[C@H]2Oc1ccc2c(c1)OC[C@H]2CC(=O)O` [Example 96, 2-((S)-6-((R)-4-(2,6-Dimethyl-4-(1-methyl-1H-tetrazol-5-yl)phenyl)-7-fluoro-2,3-dihydro-1H-inden-1-yloxy)-2,3-dihydrobenzofuran-3-yl)acetic acid] showed a concentration for a half-maximal effect (EC50) of 20 nM.

In the case of `O=C(O)C[C@@H]1COc2cc(O[C@@H]3CCc4c(-c5cccnc5C5CCOCC5)ccc(F)c43)ccc21` [Example 110, {(S)-6-[(R)-7-Fluoro-4-(2-tetrahydropyran-4-yl-pyridin-3-yl)-indan-1-yloxy]-2,3-dihydro-benzofuran-3-yl}-acetic acid], the EC50 stood at 351 nM.

For the compound `Cc1cc(OC2CCN(S(C)(=O)=O)CC2)cc(C)c1-c1ccc(F)c2c1CC[C@H]2Oc1ccc2c(c1)OC[C@H]2CC(=O)O` [Example 48, ((S)-6-{(R)-7-Fluoro-4-[4-(1-methanesulfonyl-piperidin-4-yloxy)-2,6-dimethyl-phenyl]-indan-1-yloxy}-2,3-dihydro-benzofuran-3-yl)-acetic acid], a half-maximal effect (EC50) was put at 14 nM.

The compound `Cn1nnnc1-c1c(F)cccc1-c1ccc(F)c2c1CC[C@H]2Oc1ccc2c(c1)OC[C@H]2CC(=O)O` [Example 103, 2-((3S)-6-((1R)-7-Fluoro-4-(3-fluoro-2-(1-methyl-1H-tetrazol-5-yl)phenyl)-2,3-dihydro-1H-inden-1-yloxy)-2,3-dihydrobenzofuran-3-yl)acetic acid] yielded an EC50 of 1430 nM.

As to `Cc1cc(OC2CCN(C)C2=O)cc(C)c1-c1ccc(F)c2c1CC[C@H]2Oc1ccc2c(c1)OC[C@H]2CC(=O)O` (stereo partly drawn) [Example 76, 2-((3S)-6-((1R)-4-(2,6-Dimethyl-4-(1-methyl-2-oxopyrrolidin-3-yloxy)phenyl)-7-fluoro-2,3-dihydro-1H-inden-1-yloxy)-2,3-dihydrobenzofuran-3-yl)acetic acid], the concentration for a half-maximal effect (EC50) is 27 nM.

As to `Cc1cc(OCC(C)(C)C#N)cc(C)c1-c1ccc(F)c2c1CC[C@H]2Oc1ccc2c(c1)OC[C@H]2CC(=O)O` [Example 64, 2-((S)-6-((R)-4-(4-(2-Cyano-2-methylpropoxy)-2,6-dimethylphenyl)-7-fluoro-2,3-dihydro-1H-inden-1-yloxy)-2,3-dihydrobenzofuran-3-yl)acetic acid], the EC50 was determined as 8 nM.

For the compound `Cc1cccc(-c2cc(C)c(-c3ccc(F)c4c3CC[C@H]4Oc3ccc4c(c3)OC[C@H]4CC(=O)O)c(C)c2)n1` [Example 139, {(S)-6-[(R)-4-(2,6-Dimethyl-4-(6-methyl-pyridin-2-yl)-phenyl)-7-fluoro-indan-1-yloxy]-2,3-dihydro-benzofuran-3-yl}-acetic acid], the midpoint of the response, the EC50, lay at 2 nM.

In turn, `Cc1cc(-c2ccncn2)cc(C)c1-c1ccc(F)c2c1CC[C@H]2Oc1ccc2c(c1)OC[C@H]2CC(=O)O` [Example 91, 2-((S)-6-((R)-4-(2,6-Dimethyl-4-(pyrimidin-4-yl)phenyl)-7-fluoro-2,3-dihydro-1H-inden-1-yloxy)-2,3-dihydrobenzofuran-3-yl)acetic acid] registered an EC50 of 3 nM.

For `Cc1cncc(-c2cc(C)c(-c3ccc(F)c4c3CC[C@H]4Oc3ccc4c(c3)OC[C@H]4CC(=O)O)c(C)c2)n1` [Example 118, {(S)-6-[(R)-4-(2,6-Dimethyl-4-(6-methyl-pyrazin-2-yl)-phenyl)-7-fluoro-indan-1-yloxy]-2,3-dihydro-benzofuran-3-yl}-acetic acid], a half-maximal response (EC50) required 2 nM.

In turn, `Cc1cc(-c2nnn[nH]2)cc(C)c1-c1ccc(F)c2c1CC[C@H]2Oc1ccc2c(c1)OC[C@H]2CC(=O)O` [Example 94, 2-((S)-6-((R)-4-(2,6-Dimethyl-4-(1H-tetrazol-5-yl)phenyl)-7-fluoro-2,3-dihydro-1H-inden-1-yloxy)-2,3-dihydrobenzofuran-3-yl)acetic acid] came in with an EC50 of 82 nM.

Regarding `Cc1cc(O[C@@H]2CCN(S(C)(=O)=O)C2)cc(C)c1-c1ccc(F)c2c1CC[C@H]2Oc1ccc2c(c1)OC[C@H]2CC(=O)O` [Example 44, ((S)-6-{(R)-7-Fluoro-4-[4-((R)-1-methanesulfonyl-pyrrolidin-3-yloxy)-2,6-dimethyl-phenyl]-indan-1-yloxy}-2,3-dihydro-benzofuran-3-yl)-acetic acid], a half-maximal response (EC50) required 17 nM.

Compound `Cc1cc(-c2cc(C)c(-c3ccc(F)c4c3CC[C@H]4Oc3ccc4c(c3)OC[C@H]4CC(=O)O)c(C)c2)cnn1` [Example 130, {(S)-6-[(R)-4-(2,6-Dimethyl-4-(6-methyl-pyridazin-4-yl)-phenyl)-7-fluoro-indan-1-yloxy]-2,3-dihydro-benzofuran-3-yl}-acetic acid] registered an EC50 of 5 nM.
